{
  "source": "patent US20240269214A1",
  "about": "“SUBSTANCE HAVING HIGH ACTIVITY AND HIGH SAFETY, PREPARATION METHOD THEREFOR, AND APPLICATION THEREOF IN DRUG” (priority 2021, published 2024)",
  "key": {"[1]": {"tested_on": "male Japanese white rabbits", "test": "Reversing and ablating atherosclerosis in rabbits with established atherosclerosis model (percentage of aortic plaque area)", "format": "in vivo", "conditions": "6 weeks modelling then 3 months treatment, oils 1.5 g/kg/d, simvastatin 2.0 mg/kg/d, MOD 45.8±9.9%, MBF 59.9±8.9%", "text": "Forty-eight 4-month-old male Japanese white rabbits weighing 2.0±0.2 kg were selected and randomly divided into 2 groups, as follows: • Normal diet group (Negative control group, NC): 8 male Japanese white rabbits, fed with basic feed; • Atherosclerosis modeling group (MOD): 40 male Japanese white rabbits, fed with high fat fortified basic diet, and the dose of peanut oil was 1.5 g/kg/d (converted based on adult and animal weight, body surface area and Km factor);\nThe area of atherosclerotic plaque and the total area of aortic expansion is measured, and the percentage of plaque area is calculated.\nThree months later, all animals are euthanized.\nAfter the animals are killed, the aorta is removed from the aortic valve orifice to the beginning of the common iliac artery, the aortic wall is cut longitudinally along the midline of the abdomen, fixed with 10% formaldehyde solution, and the distribution map of aortic lesions is drawn according to the aorta. The area of atherosclerotic plaque and the total area of aortic expansion is measured, and the percentage of plaque area is calculated."}, "[2]": {"tested_on": "male Japanese white rabbits", "test": "Inhibition of formation of atherosclerosis in rabbits on high-fat diet (percentage of aortic plaque area)", "format": "in vivo", "conditions": "high-fat diet 6 weeks, oils 1.5 g/kg/d, simvastatin 2.0 mg/kg/d, PC group 42.6±9.7%", "text": "High fat fortified feed: Each rabbit is fed with 0.5 grams of cholesterol, 2.0 grams of lard, and 20 grams of egg yolk daily.\nFeed for 6 weeks according to the above grouping and feeding conditions, and then execute the animals. After the animals are killed, the aorta is removed from the aortic valve orifice to the beginning of the common iliac artery, the aortic wall is cut longitudinally along the midline of the abdomen, fixed with 10% formaldehyde solution, and the distribution map of aortic lesions is drawn according to the aorta. The area of atherosclerotic plaque and the total area of aortic expansion are measured, and the percentage of plaque area is calculated."}},
  "data": [
    {"smiles": "CCC(C)(C)C(=O)O[C@H]1C[C@@H](C)C=C2C=C[C@H](C)[C@H](CC[C@@H]3C[C@@H](O)CC(=O)O3)[C@H]21", "note": "[simvastatin]", "values": [
      {"measurement": "Plaque area (percentage of atherosclerotic plaque in aortic area)", "setting": "[1]", "result": "47.1±8.3", "unit": "%"},
      {"measurement": "Plaque area (percentage of atherosclerotic plaque in aortic area)", "setting": "[2]", "result": "20.2±4.2", "unit": "%"}
    ]}
  ]
}
